Assay results: US12509437B2, “Substituted thiophene carboxamides and derivatives thereof as microbicides” (Bayer Aktiengesellschaft, priority 2019, dated 2025)

Tests used:
[1] = LogP by HPLC on reversed phase columns (EEC directive 79/831 Annex V.A8); format: physicochemical
Description: [table] If more than one Log P value is available within the same method, all the values are given and separated by “+”. Calibration was done with straight-chain alkan2-ones (with 3 to 16 carbon atoms) with known Log P values (measurement of Log P values using retention times with linear interpolation between successive alkanones). Lambda-max-values were determined using UV-spectra from 200 nm to 400 nm and the peak values of the chromatographic signals.

Peronospora parasitica = test: In vivo preventive test on Peronospora parasitica (Crucifer downy mildew) on cabbage; conditions: Hyaloperonospora parasitica, 120 h, sprayed 72 hours before inoculation, evaluated 5 days after inoculation, read-out: efficacy; for pest or weed control at 125 ppm: 125 ppm of active ingredient; for pest or weed control at 500 ppm: 500 ppm of active ingredient
Description: (§1) The tested active ingredients were prepared by homogenization in a mixture of acetone/Dimethyl sulfoxide/Tween®, and then diluted with water to obtain the desired active material concentration.
The young plants of cabbage were treated by spraying the active ingredient prepared as described above. Control plants were treated only with an aqueous solution of acetone/Dimethyl sulfoxide/Tween®.
After 72 hours, the plants were contaminated by spraying the leaves with an aqueous suspension of Peronospora parasitica spores. The contaminated cabbage plants were incubated for 5 days at 20° C. and at 100% relative humidity.
The test was evaluated 5 days after the inoculation. 0% means an efficacy which corresponds to that of the control plants while an efficacy of 100% means that no disease was observed.

[2] = system: Colletotrichum lindemuthianum; test: In vivo preventive test on Colletotrichum lindemuthianum (Anthracnose on bean); conditions: 500 ppm of active ingredient, sprayed 72 hours before inoculation, evaluated 6 days after inoculation
Description: as §1
(§2) The young plants of bean were treated by spraying the active ingredient prepared as described above. Control plants were treated only with an aqueous solution of acetone/Dimethyl sulfoxide/Tween®.
After 72 hours, the plants were contaminated by spraying the leaves with an aqueous suspension of Colletotrichum lindemuthianum spores. The contaminated bean plants were incubated for 24 hours at 20° C. and at 100% relative humidity and then for 5 days at 20° C. and at 90% relative humidity.
The test was evaluated 6 days after the inoculation. 0% means an efficacy which corresponds to that of the control plants while an efficacy of 100% means that no disease was observed.

Uromyces appendiculatus = test: In vivo preventive test on Uromyces appendiculatus (bean rust); conditions: 240 h, sprayed 72 hours before inoculation, evaluated 10 days after inoculation, read-out: efficacy
Description: as §1, §2
After 72 hours, the plants were contaminated by spraying the leaves with an aqueous suspension of Uromyces appendiculatus spores. The contaminated bean plants were incubated for 24 hours at 20° C. and at 100% relative humidity and then for 9 days at 20° C. and at 70-80% relative humidity.
The test was evaluated 10 days after the inoculation. 0% means an efficacy which corresponds to that of the control plants while an efficacy of 100% means that no disease was observed.

[3] = system: salicylate responsive promoter sequence of the PR1 (pathogenesis-related protein I) gene (AT2G14610); test: Induction of defense gene expression in Arabidopsis thaliana (PR1 promoter-GFP reporter plants); format: in vivo; conditions: 72 h, 3rd day after spraying, mock treated leaves set as 1.00, read-out: relative fluorescence value
Description: Arabidopsis thaliana reporter plants containing the coding sequence of a green fluorescent protein (GFP) linked to the salicylate responsive promoter sequence of the PR1 (pathogenesis-related protein I) gene (AT2G14610) were grown for five days and then sprayed with compounds. On the 3rd day after spraying, plant fluorescence was assessed with a MacroFluo instrument from Leica Microsystems (Wetzlar, Germany). Fluorescences were quantified with the Meta-Morph Microscopy Automation & Image Analysis Software (Molecular Devices, Sunnyvale, Calif., United States). Background fluorescence in mock treated leaves was set as 1.00.

[4] = method [a]: LC-UV, acidic range, 0.1% formic acid in water and acetonitrile as eluent

Row | LogP ([1]; method [a]) | Compound | other results
1 | 4.38^[a] | CCOC(=O)C(C)NC(=S)c1sc(Br)c(Br)c1C (stereo not shown) [I.150] | 
2 | 2.67^[a] | Cc1c(C(=O)NC(C(=O)NC(C(=O)O)C2CC2)C2CC2)sc(Cl)c1Cl (stereo not shown) [I.096] | 
3 | 3.76^[a] | CCOC(=O)CC(NC(=O)c1sc(Cl)c(Cl)c1C)C(=O)OCC (stereo not shown) [I.123] | 
4 |  | O=C(NC(C(=O)O)C1CC1)c1cc(Br)c(Br)s1 (stereo not shown) [CMP13, reference compound] | pest or weed control at 125 ppm (Peronospora parasitica): 0%
5 | 2.84^[a] | COC(=O)C1(NC(=O)c2sc(Br)c(Br)c2C)CCOC1 (stereo not shown) [I.004] | 
6 | 3.13^[a] | COC(=O)C(C1CC1)N(O)C(=O)c1sc(Cl)c(Cl)c1C (stereo not shown) [I.114] | 
7 | 2.13^[a] | COC(=O)C(CCC(N)=O)NC(=O)c1sc(Br)c(Br)c1C (stereo not shown) [I.138] | 
8 | 4.05^[a] | COC(=O)C1(NC(=O)c2sc(Cl)c(Cl)c2C)CC(C)(C)C1 [I.142] | 
9 |  | CCOC(=O)C1(NC(=O)c2sc(Br)c(Br)c2C)CCC1 [I.132] | chromatographic logP ([1]; reversed phase HPLC columns, method [a]): 3.81; pest or weed control at 500 ppm ([2]; Colletotrichum lindemuthianum, 144 h, read-out: efficacy): 70 to 79%; pest or weed control at 31 ppm (Uromyces appendiculatus; 31 ppm of active ingredient): 90 to 100%; pest or weed control at 125 ppm (Uromyces appendiculatus; 125 ppm of active ingredient): 90 to 100%; pest or weed control at 500 ppm (Uromyces appendiculatus; 500 ppm of active ingredient): 90 to 100%; pest or weed control at 31 ppm (Peronospora parasitica; 31 ppm of active ingredient): 80 to 89%; pest or weed control at 125 ppm (Peronospora parasitica): 80 to 89%; pest or weed control at 500 ppm (Peronospora parasitica): 90 to 100%; fold induction at 75 ppm ([3]; 75 ppm): > 2; fold induction at 300 ppm [3]: > 2
10 | 4.44^[a] | Cc1c(C(=O)NC(C(=O)OC2CCC2)C2CC2)sc(Cl)c1Cl (stereo not shown) [I.153] | 
11 | 1.70^[a] | Cc1c(C(=O)NC(CCC(N)=O)C(=O)O)sc(Cl)c1Cl (stereo not shown) [I.069] | 
12 | 4.59^[a] | CCCCOC(=O)C1(NC(=O)c2sc(Cl)c(Cl)c2C)CCC1 [I.157] | 
13 | 4.05^[a] | COC(=O)C(C)NC(=S)c1sc(Br)c(Br)c1C (stereo not shown) [I.149] | 
14 |  | COC(=O)CC[C@H](NC(=O)c1sc(Br)c(Br)c1C)C(=O)OC [CMP16, reference compound] | efficacy [2]: 38%
15 | 2.05^[a] | COC(=O)[C@@H](CC(N)=O)NC(=O)c1sc(Cl)c(Cl)c1C [I.054] | 
16 | 4.23^[a] | Cc1c(C(=O)NC(C(=O)OC(C)C)C2CC2)sc(Cl)c1Cl (stereo not shown) [I.154] | 
17 | 3.71^[a] | CON(C)C(=O)C(NC(=O)c1sc(Br)c(Br)c1C)C(C)C (stereo not shown) [I.061] | 
18 | 2.21^[a] | CNC(=O)C1(NC(=O)c2sc(Br)c(Br)c2C)CC1 [I.130] | 
19 | 3.87^[a] | CCOC(=O)C(NC(=O)c1sc(Br)c(Br)c1C)C(=O)OCC [I.094] | 
20 |  | Cc1c(C(=O)N[C@H]2CCCNC2=O)sc(Cl)c1Cl [I.162] | LogP [1, 4]: 2.12^[a]
21 |  | O=C(O)c1ccccc1O [Salicylic acid, reference compound] | fold induction at 300 ppm [3]: 2.7
22 | 4.15^[a] | CCOC(=O)C1(NC(=O)c2sc(Cl)c(Cl)c2C)CN(C(=O)OC(C)(C)C)C1 [I.088] | 
23 | 3.05^[a] | Cc1c(C(=S)NC(C)C(=O)O)sc(Br)c1Br (stereo not shown) [I.173] | 
24 |  | CCCOC(=O)C1(NC(=O)c2cc(Br)c(Br)s2)CC1 [CMP7, reference compound] | pest or weed control at 500 ppm (Peronospora parasitica): 0%
25 |  | Cc1c(C(=O)N[C@H]2CCOC2=O)sc(Cl)c1Cl [I.167] | LogP [1, 4]: 2.34^[a]
